Laboratory results taken from US20150274664A1 (MERCK SHARP & DOHME CORP., priority 2012, published 2015).

Biological target: T1, human GPR119 (Homo sapiens, UniProt Q8TDV5)
T1 construct: expressed in transfected cells; host or cells: HEK293
T1 sequence (Q8TDV5 1-335): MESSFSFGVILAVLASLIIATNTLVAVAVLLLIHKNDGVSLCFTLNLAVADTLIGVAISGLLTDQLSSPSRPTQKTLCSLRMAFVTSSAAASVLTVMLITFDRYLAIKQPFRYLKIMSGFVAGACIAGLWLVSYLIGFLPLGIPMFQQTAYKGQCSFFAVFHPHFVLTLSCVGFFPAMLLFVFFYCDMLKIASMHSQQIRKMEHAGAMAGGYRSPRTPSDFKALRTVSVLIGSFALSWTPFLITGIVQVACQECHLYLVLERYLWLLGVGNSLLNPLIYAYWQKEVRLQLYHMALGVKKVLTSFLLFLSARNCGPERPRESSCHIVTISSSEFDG
Experiment: Measurement of GPR119 signaling using LANCE 384-well cAMP kit (LCMP assay)
Type: cell-based
Details: HEK293 cells stably transfected with human GPR119
Experimental: Measurement of GPR119 Signaling Using LANCE 384-Well cAMP Kit (LCMP Assay)
Human embryonic kidney (HEK) 293 cell lines stably transfected with human GPR119 were maintained in DMEM media containing FBS, penicillin-streptomycin, HEPES, and hygromycin. For the cAMP assay, the transfected cells were harvested using a non-enzymatic cell dissociation solution (GIBCO 2672), pelleted and resuspended in stimulation buffer (DMEM, 25 mM Hepes, 0.1% BSA, pH 7.4 in the presence of 100 μM phosphodiesterase inhibitors). The adenylate cyclase assay was constructed following the LANCE™ cAMP Kit (Perkin Elmer, AD0264) instructions. Briefly, cells with Alexa Fluor® 647-anti cAMP antibody were incubated with 10 point series diluted test article in stimulation buffer with a final concentration of 2.5% DMSO for 45 minutes. The reaction was stopped by incubating with the supplied detection buffer containing the europium chelate of the Eu-SA/Biotin-cAMP tracer for 3 hours. The assay was performed in duplicate in a 384 well plate for duplicate plates. Fluorescence at 665 nm was measured using a PHERAstar instrument. Basal activity was determined using a DMSO control and maximum response was defined as cAMP stimulation produced by an internal agonist control. Standard cAMP concentrations were assayed concurrently for conversion of fluorescence signal to cAMP level. The data was analyzed using 4-parameter curve fit in Microsoft Excel.

SMILES	EC50 [nM]
COCc1cnc(N2CCC([C@H]3C[C@@H]3CCOc3cc(F)c(CC(=O)N(C)C)c(F)c3)CC2)nc1 [Example 57, 2-(2,6-difluoro-4-(2-((1R,2R)-2-(1-(5-(methoxymethyl)pyrimidin-2-yl)piperidin-4-yl)cyclopropyl)ethoxy)phenyl)-N,N-dimethylacetamide]	0.63
Fc1cc(-n2cnnn2)ccc1OCC[C@H]1C[C@@H]1C1CCN(c2ncc(Cl)cn2)CC1 [Example 58, 5-chloro-2-(4-((1R,2R)-2-(2-(2-fluoro-4-(1H-tetrazol-1-yl)phenoxy)ethyl)cyclopropyl)piperidin-1-yl)pyrimidine]	11
Fc1cc(OCC[C@@H]2C[C@H]2C2CCN(c3ncc(Cl)cn3)CC2)ccc1-n1cnnn1 [Example 59, 5-chloro-2-(4-((1S,2S)-2-(2-(3-fluoro-4-(1H-tetrazol-1-yl)phenoxy)ethyl)cyclopropyl)piperidin-1-yl)pyrimidine]	13
CCc1cnc(N2CCC([C@H]3C[C@@H]3CCOc3ccc(-n4cnnn4)cc3F)CC2)nc1 [Example 60, 5-ethyl-2-(4-((1R,2R)-2-(2-(2-fluoro-4-(1H-tetrazol-1-yl)phenoxy)ethyl)cyclopropyl)piperidin-1-yl)pyrimidine]	17
O=C1NCCN1c1ccc(OCC[C@H]2C[C@@H]2C2CCN(c3ncc(Cl)cn3)CC2)cc1F [Example 61, 1-(4-(2-((1R,2R)-2-(1-(5-chloropyrimidin-2-yl)piperidin-4-yl)cyclopropyl)ethoxy)-2-fluorophenyl)imidazolidin-2-one]	17
CCc1cnc(N2CCC([C@@H]3C[C@H]3CCOc3ccc(CC(=O)N4CCC4)cc3F)CC2)nc1 [Example 62, 1-(azetidin-1-yl)-2-(4-(2-((1S,2S)-2-(1-(5-ethylpyrimidin-2-yl)piperidin-4-yl)cyclopropyl)ethoxy)-3-fluorophenyl)ethanone]	11
COCc1cnc(N2CCC([C@H]3C[C@@H]3CCOc3ccc(CC(=O)N4CCC4)cc3F)CC2)nc1 [Example 63, 1-(azetidin-1-yl)-2-(3-fluoro-4-(2-((1R,2R)-2-(1-(5-(methoxymethyl)pyrimidin-2-yl)piperidin-4-yl)cyclopropyl)ethoxy)phenyl)ethanone]	15
CC(C)c1noc(N2CCC([C@@H]3C[C@H]3CCOc3ccc(S(C)(=O)=O)c(F)c3)CC2)n1 [Example 65, 5-(4-((1S,2S)-2-(2-(3-fluoro-4-(methylsulfonyl)phenoxy)ethyl)cyclopropyl)piperidin-1-yl)-3-isopropyl-1,2,4-oxadiazole]	7.7
CC(C)c1noc(N2CCC([C@@H]3C[C@H]3CCOc3ccc(S(C)(=O)=O)cc3F)CC2)n1 [Example 66, 5-(4-((1S,2S)-2-(2-(2-fluoro-4-(methylsulfonyl)phenoxy)ethyl)cyclopropyl)piperidin-1-yl)-3-isopropyl-1,2,4-oxadiazole]	3.5
CC(C)c1noc(N2CCC([C@@H]3C[C@H]3CCOc3ccc(-n4cnnn4)cc3F)CC2)n1 [Example 67, 5-(4-((1S,2S)-2-(2-(2-fluoro-4-(1H-tetrazol-1-yl)phenoxy)ethyl)cyclopropyl)piperidin-1-yl)-3-isopropyl-1,2,4-oxadiazole]	6.2
CC(C)c1noc(N2CCC([C@H]3C[C@@H]3CCOc3ccc(-n4cnnn4)cc3F)CC2)n1 [Example 68, 5-(4-((1R,2R)-2-(2-(2-fluoro-4-(1H-tetrazol-1-yl)phenoxy)ethyl)cyclopropyl)piperidin-1-yl)-3-isopropyl-1,2,4-oxadiazole]	3.5
CC(C)c1noc(N2CCC([C@@H]3C[C@H]3CCOc3ccc(CC(=O)N4CCC4)c(F)c3)CC2)n1 [Example 69, 1-(azetidin-1-yl)-2-(2-fluoro-4-(2-((1S,2S)-2-(1-(3-isopropyl-1,2,4-oxadiazol-5-yl)piperidin-4-yl)cyclopropyl)ethoxy)phenyl)ethanone]	2.2
CC(C)c1noc(N2CCC([C@@H]3C[C@H]3CCOc3ccc(CC(=O)N4CCC4)cc3F)CC2)n1 [Example 70, 1-(azetidin-1-yl)-2-(3-fluoro-4-(2-((1S,2S)-2-(1-(3-isopropyl-1,2,4-oxadiazol-5-yl)piperidin-4-yl)cyclopropyl)ethoxy)phenyl)ethanone]	6.8
CCS(=O)(=O)c1ccc(OCC[C@@H]2C[C@H]2C2CCN(c3nc(C(C)C)no3)CC2)c(F)c1 [Example 71, 5-(4-((1S,2S)-2-(2-(4-(ethylsulfonyl)-2-fluorophenoxy)ethyl)cyclopropyl)piperidin-1-yl)-3-isopropyl-1,2,4-oxadiazole]	3.8
CC(C)c1noc(N2CCC([C@H]3C[C@@H]3CCOc3ccc(CC(=O)N4CCC4)c(F)c3)CC2)n1 [Example 72, 1-(azetidin-1-yl)-2-(2-fluoro-4-(2-((1R,2R)-2-(1-(3-isopropyl-1,2,4-oxadiazol-5-yl)piperidin-4-yl)cyclopropyl)ethoxy)phenyl)ethanone]	2.6
COCc1noc(N2CCC([C@H]3C[C@@H]3CCOc3ccc(CC(=O)N4CCC4)c(F)c3)CC2)n1 [Example 73, 1-(azetidin-1-yl)-2-(2-fluoro-4-(2-((1R,2R)-2-(1-(3-(methoxymethyl)-1,2,4-oxadiazol-5-yl)piperidin-4-yl)cyclopropyl)ethoxy)phenyl)ethanone]	6.4
CC(C)c1noc(N2CCC([C@H]3C[C@@H]3CCOc3ccc(CC(=O)N4CCC4)cc3F)CC2)n1 [Example 74, 1-(azetidin-1-yl)-2-(3-fluoro-4-(2-((1R,2R)-2-(1-(3-isopropyl-1,2,4-oxadiazol-5-yl)piperidin-4-yl)cyclopropyl)ethoxy)phenyl)ethanone]	9.5
CC(C)c1noc(N2CCC([C@H]3C[C@@H]3CCOc3ccc(CC(=O)N(C)C)c(F)c3)CC2)n1 [Example 75, 2-(2-fluoro-4-(2-((1R,2R)-2-(1-(3-isopropyl-1,2,4-oxadiazol-5-yl)piperidin-4-yl)cyclopropyl)ethoxy)phenyl)-N,N-dimethylacetamide]	8.1
CC(C)c1noc(N2CCC([C@@H]3C[C@H]3CCOc3ccc(CC(=O)N(C)C)c(F)c3)CC2)n1 [Example 76, 2-(2-fluoro-4-(2-((1S,2S)-2-(1-(3-isopropyl-1,2,4-oxadiazol-5-yl)piperidin-4-yl)cyclopropyl)ethoxy)phenyl)-N,N-dimethylacetamide]	6.3
CC(C)c1noc(N2CCC([C@@H]3C[C@H]3CCOc3cc(F)c(CC(=O)N(C)C)c(F)c3)CC2)n1 [Example 77, 2-(2,6-difluoro-4-(2-((1S,2S)-2-(1-(3-isopropyl-1,2,4-oxadiazol-5-yl)piperidin-4-yl)cyclopropyl)ethoxy)phenyl)-N,N-dimethylacetamide]	0.79
COCc1noc(N2CCC([C@@H]3C[C@H]3CCOc3cc(F)c(CC(=O)N(C)C)c(F)c3)CC2)n1 [Example 78, 2-(2,6-difluoro-4-(2-((1S,2S)-2-(1-(3-(methoxymethyl)-1,2,4-oxadiazol-5-yl)piperidin-4-yl)cyclopropyl)ethoxy)phenyl)-N,N-dimethylacetamide]	6.7
CC(C)c1noc(N2CCC([C@H]3C[C@@H]3CCOc3cc(F)c(CC(=O)N4CCC4)c(F)c3)CC2)n1 [Example 79, 1-(azetidin-1-yl)-2-(2,6-difluoro-4-(2-((1R,2R)-2-(1-(3-isopropyl-1,2,4-oxadiazol-5-yl)piperidin-4-yl)cyclopropyl)ethoxy)phenyl)ethanone]	0.55
COCc1noc(N2CCC([C@H]3C[C@@H]3CCOc3cc(F)c(CC(=O)N4CCC4)c(F)c3)CC2)n1 [Example 80, 1-(azetidin-1-yl)-2-(2,6-difluoro-4-(2-((1R,2R)-2-(1-(3-(methoxymethyl)-1,2,4-oxadiazol-5-yl)piperidin-4-yl)cyclopropyl)ethoxy)phenyl)ethanone]	2.4
CC(C)c1noc(N2CCC([C@H]3C[C@@H]3CCOc3cc(F)c(CC(=O)N(C)C)c(F)c3)CC2)n1 [Example 81, 2-(2,6-difluoro-4-(2-((1R,2R)-2-(1-(3-isopropyl-1,2,4-oxadiazol-5-yl)piperidin-4-yl)cyclopropyl)ethoxy)phenyl)-N,N-dimethylacetamide]	0.67
CC(C)c1noc(N2CCC([C@@H]3C[C@H]3CCOc3cc(F)c(CC(=O)N4CCC4)c(F)c3)CC2)n1 [Example 82, 1-(azetidin-1-yl)-2-(2,6-difluoro-4-(2-((1S,2S)-2-(1-(3-isopropyl-1,2,4-oxadiazol-5-yl)piperidin-4-yl)cyclopropyl)ethoxy)phenyl)ethanone]	0.51
COCc1noc(N2CCC([C@@H]3C[C@H]3CCOc3cc(F)c(CC(=O)N4CCC4)c(F)c3)CC2)n1 [Example 83, 1-(azetidin-1-yl)-2-(2,6-difluoro-4-(2-((1S,2S)-2-(1-(3-(methoxymethyl)-1,2,4-oxadiazol-5-yl)piperidin-4-yl)cyclopropyl)ethoxy)phenyl)ethanone]	5.2
